# Laboratory results from patent US12558428B2, “Heterobifunctional compounds and their use in treating disease” (Halda Therapeutics OpCo, Inc., priority 2024, dated 2026).
# What was measured:
# [1] = test system: MCF7 cells (ATCC #HTB-22); experiment: Cellular growth inhibition assay, MCF7 cells purchased from ATCC; assay type: cell-based; conditions: Homo sapiens, MCF7, 144 h, Table 8-A; MCF7 cells purchased from ATCC; six days; CellTiter-Glo; read-out: GI50
# How it was run: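 MCF7 cells in RPMI 1640 with 10% FBS and 0.2 U/ml insulin, seeded at 1,500 cells/well (ATCC) or 225 cells/well (ECACC). Compounds added 24 h later, then 6 days at 37° C. Viability by CellTiter-Glo 2.0 luminescence. GI50 from four-parameter fit.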
# [2] = test system: T-Rex 293 cells lacking increased expression of estrogen receptor alpha protein; experiment: Cellular growth inhibition assay, T-Rex 293 cells, (−) doxycycline; assay type: cell-based; conditions: T-REx-293, 72 h, T-Rex 293 cells without doxycycline, 72 hours, CellTiter-Glo 2.0; read-out: (−) Dox TRex ERa (GI50)
# How it was run: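 Viability read-out was CellTiter-Glo 2.0 luminescence after 72 h compound exposure, normalized to zero luminescence and fitted by four-parameter regression to give GI50. Cells were an ERα-inducible T-Rex 293 clone cultured with or without 3 ng/mL doxycycline in charcoal-stripped, phenol red-free medium.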
GI50 [1] [nM],Structure (SMILES),GI50 [2] [nM]
50 to 500,"CCN(CCCCCCCCNC(=O)C[C@@H]1N=C(c2ccc(Cl)cc2)c2c(sc(C)c2C)-n2c(C)nnc21)CCOc1ccc(C(=O)c2c(-c3ccc(O)cc3)sc3cc(O)ccc23)cc1 [I-2, (S)-2-(4-(4-chlorophenyl)-2,3,9-trimethyl-6H-thieno[3,2-f][1,2,4]triazolo[4,3-a][1,4]diazepin-6-yl)-N-(8-(ethyl(2-(4-(6-hydroxy-2-(4-hydroxyphenyl)benzo[b]thiophene-3-carbonyl)phenoxy)ethyl)amino)octyl)acetamide]",50 to 500
50 to 500,"CCN(CCOCCOCCNC(=O)C[C@@H]1N=C(c2ccc(Cl)cc2)c2c(sc(C)c2C)-n2c(C)nnc21)CCOc1ccc(C(=O)c2c(-c3ccc(O)cc3)sc3cc(O)ccc23)cc1 [I-3, (S)-2-(4-(4-chlorophenyl)-2,3,9-trimethyl-6H-thieno[3,2-f][1,2,4]triazolo[4,3-a][1,4]diazepin-6-yl)-N-(2-(2-(2-(ethyl(2-(4-(6-hydroxy-2-(4-hydroxyphenyl)benzo[b]thiophene-3-carbonyl)phenoxy)ethyl)amino)ethoxy)ethoxy)ethyl) acetamide]",500 to 2500
